Where two headings read alike, the source gives them in different places. Some results are limits rather than exact numbers.

The test system of data set [1] is HPIV3. As to the kind of experiment: Late-stage HPIV3 replication with cytoskeleton inhibitors (TCID50, RT-qPCR, WB). The settings on record: HeLa cells infected 18 h, then inhibitor for 6 h; for viral RNA synthesis and protein expression levels: RT-qPCR and WB; for HPIV3 virions in the supernatant / intracellular progeny virus particles: TCID50 at 24 hpi. (Quantitative PCR measures a nucleic acid by following its amplification.)
Description: To investigate the role of the cytoskeleton in the later stages of infection, HeLa cells were infected with HPIV3 for 18 h before being treated with the inhibitors for an additional 6 h.
A–D Impact of cytoskeleton inhibitors on HPIV3 replication. HeLa cells infected with HPIV3 for 18 h were treated with Nocodazole (NCZ) or Cytochalasin D (Cyto D). At 24 h post infection (hpi), the virions released in the cell supernatant (A) and the quantity of intracellular progeny virus particles (B) were determined by TCID50 assays. Cells were collected for RT-qPCR analysis of intracellular viral RNA (C), and Western Blot (WB) analysis of intracellular viral protein (D). […] All experiments were independently repeated at least twice with reproducible results. Statistical significance (*p < 0.05, **p < 0.01, ***p < 0.001) was determined by two-sided unpaired t test. Data are means ± SEM

The next data set deals with HPIV3 VLPs in 293T cells. As to the kind of experiment: HPIV3 VLP budding and plasma membrane fraction assay, WB. Type of data set: cell-based. The settings on record: 293T cells transfected with N, P, M plasmids 30 h, inhibitor for 6 h. As for the experimental part: Data are presented as means ± SEM
The cell lysates were prepared as described for the Western blot (WB) analysis. The supernatant was harvested and clarified by centrifugation at 12,000×g for 5 min. Subsequently, the supernatant was pelleted through a 20% sucrose cushion at 4 °C at 35,000 rpm for 2 h. The VLP pellets obtained were resuspended in PBS and boiled with SDS-PAGE loading buffer at 100 °C for 10 min. Both the cell lysates and the supernatants were then subjected to WB analysis.
293T cells, cultured in 6-cm dishes, were transfected with the indicated plasmids for 24 h. Cell collection was performed through centrifugation at 500×g for 5 min at 4 °C. Subsequently, cytosol, organelle membrane, and plasma membrane-associated proteins were extracted sequentially using the MinuteTM plasma membrane protein isolation and cell fractionation kit (INVENT), following the manufacturer's instructions.

The test system of a further data set is WSN virus. In kind it is in vivo, BALB/c mice. The settings on record: 20 mg/kg i.p. once daily Day 0 to Day 4, positive control, n = 5.
The test system of data set [2] is HPIV3.
A further data set concerns HeLa cells. In words: Cellular uptake of FITC-labeled RBD, fluorescent microscopy. Type of data set: in vitro ADME. The settings on record: 5 μM FITC-labeled RBD, with or without HPIV3HA-P infection, fluorescent microscopy at 24 hpi. As for the experimental part:
Supplementary file 13578_2025_1384_MOESM4_ESM.tif: Supplementary Material 4. Fig. S4. Cell penetration, cytotoxicity, and anti-HPIV3 activity of RBD in different cell lines. (A) Cellular uptake of FITC-labeled RBD in HeLa Cells. HeLa cells were exposed to 5 μM FITC-labeled RBD in the absence or presence of HPIV3HA-P infection, and analyzed by fluorescent microscopy at 24 hpi. RBD (green), HPIV3HA-P (red), and nuclei were stained with DAPI. Scale bar, 50 μm. (B to F) Cytotoxicity of RBD in various cell lines. Cell viability was assessed in HeLa (B), A549 (C), MK2 (D), MDCK (E) and HEp-2 cells (F) treated with increasing concentrations of […] for 24 h using the CCK-8 assay. (G to I) Antiviral efficacy of RBD against HPIV3 in different cell lines. A549 (G), MK2 (H) and MDCK (I) cells were treated with 2-fold-increasing concentrations of RBD for 24h, and viral titers in the cell supernatant were determined by TCID50. […] Data are means ± SEM.

The test system of data set [3] is HeLa, A549, MK2, MDCK and HEp-2 cells. Conditions: CCK-8, 24 h treatment, in the tested cell lines (HeLa, A549, MK2, MDCK, HEp-2).

For the compound `C=C1[C@@H](C)[C@H]2[C@H](Cc3ccccc3)NC(=O)[C@]23[C@H](OC(C)=O)/C=C/[C@@](C)(O)C(=O)[C@@H](C)C/C=C/[C@H]3[C@@H]1O` [Cyto D, Cytochalasin D], in the data set with HPIV3 [1], the “viral RNA synthesis and protein expression levels” value is on record as “unaffected”; the “HPIV3 virions in the supernatant” value is on record as “significant reduction”; the “intracellular progeny virus particles” value is recorded as “decrease”. In addition, in the data set on HPIV3 VLPs in 293T cells, the VLP production entry is reported as “substantial impact”.
For `COC(=O)Nc1nc2ccc(C(=O)c3cccs3)cc2[nH]1` [NCZ, Nocodazole] the same measures were “unaffected”, “significant reduction”, “decrease” and “modest effect”.
Take `CCOC(=O)C1=C[C@@H](OC(CC)CC)[C@H](NC(C)=O)[C@@H](N)C1` [Osel, Oseltamivir, reference compound]: in the data set on WSN virus, the “protection against morbidity and mortality, IAV (WSN)” value was “complete protection against morbidity and mortality”.
In the case of `N=C(N)NCCC[C@H](NC(=O)[C@H](CCCNC(=N)N)NC(=O)[C@H](CCCNC(=N)N)NC(=O)[C@H](CCC(N)=O)NC(=O)[C@H](CCCNC(=N)N)NC(=O)[C@H](CCCNC(=N)N)NC(=O)[C@H](CCCCN)NC(=O)[C@H](CCCCN)NC(=O)[C@@H](N)CCCNC(=N)N)C(=O)O` [Tat, reference compound], in the data set on HPIV3 [2] (HeLa cells, escalating concentrations, 24 hpi, WB and TCID50), the “antiviral effect on HPIV3 infection (in words)” value is “no discernible antiviral effect”.
In the case of “THIRELEDYIDNLLVRVMEETPSILRVPRKKRRQRRR [RBD]”, the “cell penetration (cellular uptake)” value with HeLa cells is listed as “efficiently penetrated HeLa cells”. For the same compound, in the data set with HPIV3 [2] (A549 cells), the “SI (CC50/IC50), HPIV3, A549” value was > 21.55. In addition, the “SI (CC50/IC50), HPIV3, HeLa” value with HPIV3 [2] (HeLa cells) is listed as > 23.08. For the same compound, the “SI (CC50/IC50), HPIV3, MDCK” value in the data set on HPIV3 [2] (MDCK cells) is given as > 15.37. In addition, the “SI (CC50/IC50), HPIV3, MK2” value in the data set on HPIV3 [2] (MK2 cells) was > 27.68. In addition, the IC50 (as a rule, the midpoint of a concentration-inhibition curve) in the data set on HPIV3 [2] (read-out: IC50, HPIV3, A549) came to 3.48 µM; with HPIV3 [2] (read-out: IC50, HPIV3, HeLa), 3.25 µM; in the data set with HPIV3 [2] (read-out: IC50, HPIV3, MDCK), 4.88 µM; with HPIV3 [2] (read-out: IC50, HPIV3, MK2), 2.71 µM. Moreover, the CC50 (commonly the concentration giving 50% cytotoxicity) in data set [3] was > 75 µM.

Values taken from article PMC12013085, “Peptides targeting RAB11A–FIP2 complex inhibit HPIV3, RSV, and IAV replication as broad-spectrum antivirals” (Cell & Bioscience, 2025).
